Test results published in ChEMBL document CHEMBL4808247 (Bioorg Med Chem, 2021).
Converted amounts (≈) assume the structure as drawn.

Key:
Assay type in all cases: functional
Enterobacter cloacae [1] = experiment: Antibacterial activity against Enterobacter cloacae IR32 producing class B beta-lactamase, NDM-1 assessed as reduction in microbial growth incubated for 16 to 20 hrs in presence of vaborbactam by broth microdilution method; conditions: time 16-20 hrs
Escherichia coli [2] = experiment: Antibacterial activity against Escherichia coli SR34100 producing class A beta lactamase, CTX-M-15 assessed as reduction in microbial growth incubated for 16 to 20 hrs in presence of vaborbactam by broth microdilution method; conditions: time 16-20 hrs
Klebsiella pneumoniae [3] = experiment: Antibacterial activity against Klebsiella pneumoniae JMI:211 producing class A beta-lactamase, KPC-2 assessed as reduction in microbial growth incubated for 16 to 20 hrs in presence of vaborbactam by broth microdilution method; conditions: time 16-20 hrs
Enterobacter cloacae [4] = experiment: Antibacterial activity against Enterobacter cloacae SR36276 producing class C beta-lactamase, AmpC assessed as reduction in microbial growth incubated for 16 to 20 hrs in presence of vaborbactam by broth microdilution method; conditions: time 16-20 hrs
Klebsiella pneumoniae [5] = experiment: Antibacterial activity against Klebsiella pneumoniae PLE producing class D beta-lactamase, OXA-48 assessed as reduction in microbial growth incubated for 16 to 20 hrs in presence of vaborbactam by broth microdilution method; conditions: time 16-20 hrs
Escherichia coli [6] = experiment: Antibacterial activity against Escherichia coli NIHJ JC-2 strain assessed as reduction in microbial growth incubated for 16 to 20 hrs in presence of vaborbactam by broth microdilution method; conditions: time 16-20 hrs
Escherichia coli [7] = experiment: Antibacterial activity against Escherichia coli NIHJ JC-2 assessed as reduction in microbial growth incubated for 16 to 20 hrs by broth microdilution method; conditions: time 16-20 hrs
Klebsiella pneumoniae [8] = experiment: Antibacterial activity against Klebsiella pneumoniae JMI:211 producing class A beta-lactamase, KPC-2 assessed as reduction in microbial growth incubated for 16 to 20 hrs by broth microdilution method; conditions: time 16-20 hrs
[9] = Ratio of MIC for antibacterial activity against Escherichia coli BL21(DE3) transfected with pET9a vector harboring class A beta lactamase, CTX-M-15 to MIC for antibacterial activity against Escherichia coli BL21(DE3)
Escherichia coli [10] = experiment: Antibacterial activity against Escherichia coli BL21(DE3) transfected with pET9a vector harboring class C beta lactamase, AmpC incubated for 16 to 20 hrs by broth microdilution method; conditions: time 16-20 hrs
Escherichia coli [11] = experiment: Antibacterial activity against Escherichia coli BL21(DE3) transfected with pET9a vector harboring class B beta lactamase, NDM-1 incubated for 16 to 20 hrs by broth microdilution method; conditions: time 16-20 hrs
Klebsiella pneumoniae [12] = experiment: Antibacterial activity against Klebsiella pneumoniae PLE producing class D beta-lactamase, OXA-48 assessed as reduction in microbial growth incubated for 16 to 20 hrs by broth microdilution method; conditions: time 16-20 hrs
Escherichia coli [13] = experiment: Antibacterial activity against Escherichia coli BL21(DE3) transfected with pET9a empty vector incubated for 16 to 20 hrs by broth microdilution method; conditions: time 16-20 hrs
[14] = Ratio of MIC for antibacterial activity against Escherichia coli BL21(DE3) transfected with pET9a vector harboring class D beta lactamase, OXA-48 to MIC for antibacterial activity against Escherichia coli BL21(DE3)
Enterobacter cloacae [15] = experiment: Antibacterial activity against Enterobacter cloacae IR32 producing class B beta-lactamase, NDM1 assessed as reduction in microbial growth incubated for 16 to 20 hrs by broth microdilution method; conditions: time 16-20 hrs
[16] = Ratio of MIC for antibacterial activity against Escherichia coli BL21(DE3) transfected with pET9a vector harboring class C beta lactamase AmpC to MIC for antibacterial activity against Escherichia coli BL21(DE3)
[17] = Ratio of MIC for antibacterial activity against Escherichia coli BL21(DE3) transfected with pET9a vector harboring class B beta lactamase NDM-1 to MIC for antibacterial activity against Escherichia coli BL21(DE3)
Escherichia coli [18] = experiment: Antibacterial activity against Escherichia coli BL21(DE3) transfected with pET9a vector harboring class A beta lactamase, CTX-M-15 incubated for 16 to 20 hrs by broth microdilution method; conditions: time 16-20 hrs
Enterobacter cloacae [19] = experiment: Antibacterial activity against Enterobacter cloacae SR36276 producing class C beta-lactamase, AmpC assessed as reduction in microbial growth incubated for 16 to 20 hrs by broth microdilution method; conditions: time 16-20 hrs
Escherichia coli [20] = experiment: Antibacterial activity against Escherichia coli SR34100 producing class A beta-lactamase, CTX-M-15 assessed as reduction in microbial growth incubated for 16 to 20 hrs by broth microdilution method; conditions: time 16-20 hrs
Escherichia coli [21] = experiment: Antibacterial activity against Escherichia coli BL21(DE3) transfected with pET9a vector harboring class D beta lactamase, OXA-48 incubated for 16 to 20 hrs by broth microdilution method; conditions: time 16-20 hrs

C[C@@H](O)[C@H]1C(=O)N2C(C(=O)O)=C(S[C@@H]3CN[C@H](C(=O)N(C)C)C3)[C@H](C)[C@H]12 [MEROPENEM] showed an MIC (Enterobacter cloacae [1]) of 16 µg/mL, an MIC (Escherichia coli [2]) of less than 0.031 µg/mL and an MIC (Klebsiella pneumoniae [3]) of less than 0.031 µg/mL. It also gave an MIC (Enterobacter cloacae [4]) of less than 0.031 µg/mL, an MIC (Klebsiella pneumoniae [5]) of 1 µg/mL and an MIC (Escherichia coli [6]) of less than 0.031 µg/mL.
CC(C)(O/N=C(\C(=O)N[C@@H]1C(=O)N2[C@@H]1SC[C@@H]1CC(=O)O[C@@]12C(=O)O)c1csc(N)n1)C(=O)O (stereo in doubt) showed an MIC (Escherichia coli [7]) of 0.5 µg/mL, an MIC (Klebsiella pneumoniae [8]) of 1 µg/mL and a Ratio [9] of less than 2. The MIC (Escherichia coli [10]) was 1 µg/mL (≈ 1.95 µM), the MIC (Escherichia coli [11]) was 0.5 µg/mL (≈ 0.974 µM) and the MIC (Klebsiella pneumoniae [12]) was 2 µg/mL. It also gave an MIC (Escherichia coli [13]) of 0.5 µg/mL (≈ 0.974 µM), a Ratio [14] of less than 2 and an MIC (Enterobacter cloacae [15]) of 0.5 µg/mL. For the same molecule, the Ratio [16] was less than 2, the Ratio [17] was less than 2 and the MIC (Escherichia coli [18]) was 0.5 µg/mL (≈ 0.974 µM). For the same molecule, the MIC (Enterobacter cloacae [19]) was 16 µg/mL, the MIC (Escherichia coli [20]) was 1 µg/mL and the MIC (Escherichia coli [21]) was 0.5 µg/mL (≈ 0.974 µM).
